Reference: patent publication US6380244B2, “Nutritional and therapeutic uses of 3-hydroxyalkanoate oligomers” (Metabolix, Inc., priority 1998, dated 2002)

Legend:
[1] = Single oral bolus of triolide in a fasted dog, blood ketone bodies and glucose (Example 2); type: in vivo, mongrel dog
Procedure: A mongrel dog (21 kg) was fasted overnight and given an oral bolus of triolide (R,R,R)-4,8,12-trimethyl-1,5,9-trioxadodeca-2,6,10-trione, 10 g) in gelatin. This amount of triolide is equivalent to 5% of the daily caloric requirement. Blood was sampled at 0, 15, 30, 45, and 60 minutes and every half hour thereafter for a total of six hours.
The blood samples were analyzed for glucose via enzymatic assay, and for acetoacetate and 3-hydroxybutyrate via GC-mass spectrometry (GC-MS) assay. As shown by FIG. 1, within 90 minutes, the blood concentrations of 3-hydroxybutyrate and acetoacetate reached 0.3 and 0.05 mM, and the total ketone bodies in the blood were 0.36 mM. After the fourth hour, the total ketone body concentration remained elevated at 0.24 mM. Glucose concentration in the blood dropped from 6.5 mM to 5 mM during the experiment.

[2] = Repeated feeding of meat plus triolide to a fasted dog, blood ketone bodies, glucose, tolerability (Example 3); type: in vivo, mongrel dog
Procedure: A mongrel dog (25.5 kg) was fasted overnight and fed a mixture of meat (111 g) and triolide ((R,R,R)-4,8,12-trimethyl-1,5,9-trioxadodeca-2,6,10-trione, 23.5 g). This amount of triolide is equivalent to 10% of the daily caloric requirement. Identical amounts of meat and triolide were given at 0, 120, 360 and 540 minutes. Blood was sampled at regular intervals for 12 hours.
The blood samples were analyzed for acetoacetate and 3-hydroxybutyrate. Within 30 minutes, the concentrations of 3-hydroxybutyrate and acetoacetate reached 0.85 and 0.15 mM, respectively. The total ketone bodies in the blood were 1.0 mM. After the third feeding of triolide, total ketone body concentration remained elevated and steady at about 0.6 mM. Glucose concentration in the blood remained within the normal range of 3.1 to 5.9 mM. […] By the next morning, the ketone body concentration in the blood had returned to the normal value of 0.02 mM.

[3] = four feedings of 23.5 g triolide, throughout the experiment
[4] = meat + triolide 23.5 g, within 30 minutes

blood concentration of 3-hydroxybutyrate ([1]; oral bolus 10 g triolide in gelatin (5% of daily caloric requirement), within 90 minutes, GC-MS): 300 µM | total ketone bodies in the blood ([1]; oral bolus 10 g triolide in gelatin, within 90 minutes): 0.36 mM | blood concentration of acetoacetate ([1]; oral bolus 10 g triolide in gelatin, within 90 minutes, GC-MS): 50 µM | total ketone body concentration ([1]; oral bolus 10 g triolide, after the fourth hour, remained elevated): 0.24 mM
SMILES: C[C@@H]1CC(=O)O[C@H](C)CC(=O)O[C@H](C)CC(=O)O1 [triolide, (R,R,R)-4,8,12-Trimethyl-1,5,9-Trioxadodeca-2,6,10-Trione]
total ketone body concentration ([2]; after the third feeding of triolide, elevated and steady): about 0.6 mM | ketone body concentration in the blood ([2]; by the next morning, returned to the normal value): 0.02 mM | other clinical chemistry profiles [2, 3]: remained normal | signs of distress, unusual behavior, abnormal bodily functions (diarrhea, nausea, vomiting, frequent urination) [2, 3]: no signs of distress | blood concentration of 3-hydroxybutyrate ([2]; meat 111 g + triolide 23.5 g (10% of daily caloric requirement) at 0, 120, 360, 540 min, within 30 minutes): 850 µM | blood concentration of acetoacetate [2, 4]: 150 µM | total ketone bodies in the blood [2, 4]: 1.0 mM
